Experimental data published in patent EP4257135A1, “BENZIMIDAZOLE DERIVATIVES FOR PULMONARY ARTERIAL HYPERTENSION” (Justus-Liebig-Universität Gießen, priority 2022, dated 2023).

Test system: PAH-PCLS
Assay: Ex vivo precision-cut lung slices (PCLS) from PAH lungs, medial wall thickness
Format: cell-based
Settings: PCLS from human PAH lungs; 200 µM on days 2 and 6, fixed day 10; vessels 20-150 µm; vs DMSO
Source text: Lungengewebeproben wurden von Patienten mit IPAH entnommen. Aus den mit 3% niedrigschmelzender Agarose gefüllten Lungenproben von Patienten mit IPAH wurden mit einem Vibratom (Leica Biosystems) Gewebeschnitte (400 µm dick) angefertigt. Die Lungengewebeschnitte wurden in DMEM-GlutaMAX-Medium mit 10 % fetalem Kälberserum, 1 % Penicillin/Streptomycin und 0,1 % Amphotericin B (Thermo Fisher Scientific) kultiviert, und die Behandlung wurde am zweiten Tag eingeleitet. Die Substanz SGC-CBP30 wurde in einer Konzentration von 200 µM an den Tagen 2 und 6 verabreicht. Am 10. Tag wurde das Gewebe in 4% Paraformaldehyd (Roti-Histofix; Carl Roth) fixiert und in Paraffin eingebettet. Die mediale Wanddicke wurde in allen Gefäßen mit einer Größe von 20-150 µm in den Lungenschnitten gemessen.
Das therapeutische Potenzial der EP300/CREBBP-Hemmung durch die Substanz SGC-CBP30 wurde untersucht. Dazu wurde die Wirksamkeit auf PAH-FBs und PAH-SMCs geprüft, die aus den Lungenarterien von menschlichen PAH-Patienten und aus den Lungenarterien von Ratten mit MCT-PAH (Rattenmodell mit Monocrotalin) isoliert wurden. […] Die Wirkung der EP300-Hemmung auf das vaskuläre Remodelling wurde durch Quantifizierung der prozentualen medialen Wanddicke in den mit der Substanz SGC-CBP30 inkubierten PCLS im Vergleich zu den mit DMSO inkubierten Kontrollen bewertet. […]

COc1ccc(CCc2nc3cc(-c4c(C)noc4C)ccc3n2C[C@H](C)N2CCOCC2)cc1Cl [SGC-CBP30, 2-[2-(3-Chloro-4-methoxyphenyl)ethyl]-5-(3,5-dimethyl-1,2-oxazol-4-yl)-1-[(S)-2-(morpholin-4-yl)propyl]-1H-benzimidazole]
mediale Wanddicke der umgestalteten PAs: signifikante Verringerung
